Laboratory results taken from BigSolDB 2.1.

O=[N+]([O-])/N=C1\NCCN1Cc1ccc(Cl)nc1
solubility (mole fraction)
Conditions | 283.15 K | 288.15 K | 293.15 K | 298.15 K | 303.15 K | 308.15 K | 313.15 K | 318.15 K | 323.15 K
in acetone | 0.00862 | 0.0102 | 0.012 | 0.014 | 0.0163 | 0.0188 | 0.0218 | 0.0249 | 0.0285
in ethanol | 0.000303 | 0.0004 | 0.00053 | 0.000699 | 0.000895 | 0.00115 | 0.00148 | 0.00191 | 0.00238
in methanol | 0.000689 | 0.000882 | 0.00112 | 0.00141 | 0.00177 | 0.00221 | 0.00274 | 0.00339 | 0.0041
in n-propanol | 0.000266 | 0.000362 | 0.000475 | 0.00064 | 0.000837 | 0.00109 | 0.0014 | 0.00179 | 0.00228
in water | 6.79e-06 | 9.67e-06 | 1.36e-05 | 1.87e-05 | 2.56e-05 | 3.43e-05 | 4.71e-05 | 6.23e-05 | 8.15e-05
